The target of one test is T1, ABL1 (Homo sapiens, UniProt P00519).
T1 construct: endogenous in cells; host or cells: Jurkat (Clone E6.1) cell lysate
The experiment in a line: Kinobeads selectivity profiling. The following applies: Jurkat lysate, dose series given in nM, read-out: Kd (apparent dissociation constant, corrected for protein depletion). The test is classed as binding. The method, then:
(§1) Excitation and emission filters […]
(§2) curve. […] Measurements were
(§3) Kinobeads selectivity profiling of PROTACs
(§4) (Multiplexion, Heidelberg, Germany).
(§5) The cell lysate was ultracentrifuged and diluted
(§6) NaF, 1 mM DTT, protease inhibitors and phosphatase inhibitors to a final concentration of 5 mg/ml as determined by Bradford assay. For selectivity profiling of compounds the cell lysate (2.5 mg of total proteins per pulldown) was pre-incubated with increasing compound […]
(§7) µM) for 45 min at 4 °C in an end-over-end shaker. Subsequently, lysates were incubated with Kinobeads epsilon (17 µL settled beads) for 30 min at 4 °C. To assess the degree of protein depletion from the lysates by Kinobeads, the flow-through of the DMSO control was recovered […]
(§8) for a pulldown of pulldown experiment where the lysate was incubated a second time with fresh Kinobeads. Beads were washed in 3 steps with buffer containing 0.4%, 0.2% and no NP40.
(§9) Bound proteins were reduced with 50 mM DTT in 8 M Urea, 40 mM Tris-HCl pH 7.4 for 30 min at room temperature. After alkylation with 55 mM chloroacetamide (CAA), the Urea concentration was reduced to 1 – 2 M and proteins were digested using trypsin. Acidified peptides were desalted and concentrated using SepPak tC18 µEluation plates (Waters).
(§10) Samples were frozen, dried by vacuum centrifugation and stored at -20 °C.
(§11) LC-MS2 analysis. Peptides were measured on a Dionex Ultimate3000 nano HPLC coupled online to an Orbitrap Fusion Lumos (Thermo Fisher Scientific) mass spectrometer.
(§12) Peptides were dissolved in 0.1% formic acid and delivered to a trap column (ReproSil-pur C18-AQ, 5 μm, Dr. Maisch, 20 mm × 75 μm, self-packed) at a flow rate of 5 μL/min in LC solvent A (0.1 % formic acid).4 After 10 min of loading, peptides were transferred to an analytical column (ReproSil Gold C18-AQ, 3 μm, Dr. Maisch, 400 mm × 75 μm, self-packed) and separated using […]
(§13) acetonitrile) in LC solvent A.
(§14) The Orbitrap Fusion Lumos was operated as follows: positive polarity; spray voltage 2.1 kV, […]
(§15) A full-scan (MS1) was recorded from 360 to 1300 m/z with a resolution of 60,000 in the Orbitrap in profile mode. The MS1 AGC target was set to 4e5 and the maxIT was set to 50 ms, RF lens value was set to 50%. Based on the full scans, precursors were targeted for the MS/MS scans […]
(§16) intensity exceeded 2.5e4. The dynamic exclusion was set to 30 sec and exclude isotopes was switched on. The MS2 quadrupole isolation window was set to 1.7 m/z. Peptide fragmentation occurred in the ion routing multipole (IRM) by HCD with a fixed collision energy mode, the […]

A further test concerns the target T2, AAK1 (Homo sapiens, UniProt Q2M2I8).
T2 construct: endogenous in cells; host or cells: Jurkat (Clone E6.1) cell lysate
The experiment in a line: Kinobeads selectivity profiling. In kind it is binding. The following applies: Jurkat lysate, dose series given in nM, read-out: Kd (apparent dissociation constant, corrected for protein depletion). On the procedure: as §1, §2, §3, §4, §5, §6, §7, §8, §9, §10, §11, §12, §13, §14, §15, §16

In a further test the target is full-length AAK1 (Homo sapiens, UniProt Q2M2I8). The experiment in a line: NanoBRET target engagement assay, intact and permeabilized cells. The following applies: NanoBRET, mean of duplicates.
In a further test the test system is Jurkat cells. Kind of test: CellTiterGlo cell viability assay. Particulars: Homo sapiens, 24 h, mean of triplicates, ^b/^c values estimated, read-out: IC50±sd/μM (cell viability). In kind it is cell-based, human. The method, then:
The effects of the compounds on cell viability was determined using the CellTiter-Glo® 2.0 Cell Viability Assay (Promega: G9241) following manufacturer’s protocol. Ten µL of Jurkat cells at […]
After equilibration, PROTACs were titrated at various concentrations using an Echo acoustic […]
volume of CellTiter-Glo® 2.0 reagent (10 µL) was added to each well and cells were incubated for 10 minutes at room temperature. Filtered luminescence was measured on a PHERAstar plate reader (BMG Labtech) and data was evaluated using GraphPad Prism 9 software employing a normalized curve it with the following equation: Y=Bottom + (Top-Bottom)/(1+10(LogEC50-X) *HillSlope).
Sample preparation. Jurkat cells (ATCC © HTB-22) were cultured in RPMI (Thermo: […]

The next test concerns the target T3, ITK (Homo sapiens, UniProt Q08881).
T3 construct: endogenous in cells; host or cells: Jurkat
T3 sequence (Q08881 1-620): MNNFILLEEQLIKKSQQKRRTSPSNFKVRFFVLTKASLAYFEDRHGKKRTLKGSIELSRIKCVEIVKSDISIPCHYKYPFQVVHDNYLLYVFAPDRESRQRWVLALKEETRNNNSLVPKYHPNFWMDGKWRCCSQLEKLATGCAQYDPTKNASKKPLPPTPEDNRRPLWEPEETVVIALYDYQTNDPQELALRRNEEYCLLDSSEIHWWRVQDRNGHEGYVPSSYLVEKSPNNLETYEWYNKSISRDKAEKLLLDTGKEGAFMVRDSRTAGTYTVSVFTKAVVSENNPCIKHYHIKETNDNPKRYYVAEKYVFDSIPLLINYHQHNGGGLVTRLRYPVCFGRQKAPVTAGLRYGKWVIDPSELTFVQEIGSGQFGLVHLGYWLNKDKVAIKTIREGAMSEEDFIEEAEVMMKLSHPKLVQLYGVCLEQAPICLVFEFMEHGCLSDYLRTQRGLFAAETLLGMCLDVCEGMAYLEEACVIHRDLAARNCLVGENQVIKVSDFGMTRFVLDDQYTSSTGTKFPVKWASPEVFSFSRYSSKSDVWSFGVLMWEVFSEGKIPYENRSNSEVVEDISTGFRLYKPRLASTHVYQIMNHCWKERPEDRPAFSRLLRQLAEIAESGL
The experiment in a line: Western blot assay. In kind it is cell-based. Particulars: Jurkat cells, 6 h. The method, then: (§17) Two mL of Jurkat cells were seeded into 6 well plates (Greiner) at a density of 5·10 5 cells/mL.
(§18) The following day, cells were treated with compounds at according concentrations or DMSO for 6 hours and then lysed with 6 M Urea at 4 °C for 20 minutes. The lysates were centrifuged for 15 minutes at 16000 g and the supernatant was collected to perform the Western-Blot.
(§19) Protein quantification was performed using nanodrop One. The SDS samples were prepared […]
(§20) The samples were separated by a BIS-TRIS polyacrylamide gel polyacrylamide gel, 100 V for 1:45) followed by transfer to PVDF membranes (Millipore) at 350 mA for 140 minutes. The membranes were blocked using 5%wt/vol BSA (in TBS-T, 20 mM Tris-HCl, pH 7.5, 150 mM NaCl and 0.1% (vol/vol) Tween 20) at room temperature for 1 hour.
(§21) The blots were incubated with respective primary antibodies at 1:1000 dilution (Cell Signaling technologies: Aurora A (D3E4Q), ITK (2F12) and GAPDH (D4C6R)) at 4 °C overnight. The blots were washed with TBS-T thrice and incubated with 1:5000 dilution of horseradish peroxidase (HRP)-labelled respective secondary antibodies (Cell Signaling technologies, Anti- […]
(§22) The blots were washed with TBS-T thrice and then incubated with chemiluminescent HRP substrate (Bio-Rad) for 2 minutes. The blots were imaged and the signals were detected using the Amersham ImageQuant 800 (Cytiva).
(§23) Cell culture. Human MV4-11 ([…]) and human Jurkat ([…]) cells were cultured in RPMI- […]
(§24) °C in 5% CO2. Both media were supplemented with 10% FBS and 1% penicillin/streptomycin. […]

For a further test, the target named is T4, AURKA (Homo sapiens, UniProt O14965).
T4 sequence (O14965 1-403): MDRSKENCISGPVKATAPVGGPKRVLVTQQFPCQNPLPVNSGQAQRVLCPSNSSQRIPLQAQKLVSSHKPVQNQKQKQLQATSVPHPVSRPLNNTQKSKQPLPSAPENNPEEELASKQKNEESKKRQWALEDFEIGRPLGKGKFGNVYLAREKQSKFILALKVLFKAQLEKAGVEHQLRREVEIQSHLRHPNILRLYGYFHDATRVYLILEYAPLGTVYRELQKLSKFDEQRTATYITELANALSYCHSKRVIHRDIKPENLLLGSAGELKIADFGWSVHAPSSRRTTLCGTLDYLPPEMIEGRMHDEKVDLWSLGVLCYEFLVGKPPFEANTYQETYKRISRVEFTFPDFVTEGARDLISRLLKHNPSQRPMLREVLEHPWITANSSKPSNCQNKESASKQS
The experiment in a line: Western blot assay. The test is classed as cell-based. Also on record: endogenous in cells; host or cells: Jurkat. Particulars: Jurkat cells, 6 h. On the procedure:
as §17, §18, §19, §20, §21, §22, §23, §24

Where [1] appears, read: AAK1 intact (IC50±sd)/μM, intact cells, ^a values estimated by extrapolation.
Where [2] appears, read: AAK1 permeabilized (IC50±sd)/μM, permeabilized cells.

Here are results for 4 molecules from paper PMC11851430, “Workflow for E3 Ligase Ligand Validation for PROTAC Development” (ACS Chemical Biology, 2025).

Sequence of full-length AAK1 (Q2M2I8 whole entry): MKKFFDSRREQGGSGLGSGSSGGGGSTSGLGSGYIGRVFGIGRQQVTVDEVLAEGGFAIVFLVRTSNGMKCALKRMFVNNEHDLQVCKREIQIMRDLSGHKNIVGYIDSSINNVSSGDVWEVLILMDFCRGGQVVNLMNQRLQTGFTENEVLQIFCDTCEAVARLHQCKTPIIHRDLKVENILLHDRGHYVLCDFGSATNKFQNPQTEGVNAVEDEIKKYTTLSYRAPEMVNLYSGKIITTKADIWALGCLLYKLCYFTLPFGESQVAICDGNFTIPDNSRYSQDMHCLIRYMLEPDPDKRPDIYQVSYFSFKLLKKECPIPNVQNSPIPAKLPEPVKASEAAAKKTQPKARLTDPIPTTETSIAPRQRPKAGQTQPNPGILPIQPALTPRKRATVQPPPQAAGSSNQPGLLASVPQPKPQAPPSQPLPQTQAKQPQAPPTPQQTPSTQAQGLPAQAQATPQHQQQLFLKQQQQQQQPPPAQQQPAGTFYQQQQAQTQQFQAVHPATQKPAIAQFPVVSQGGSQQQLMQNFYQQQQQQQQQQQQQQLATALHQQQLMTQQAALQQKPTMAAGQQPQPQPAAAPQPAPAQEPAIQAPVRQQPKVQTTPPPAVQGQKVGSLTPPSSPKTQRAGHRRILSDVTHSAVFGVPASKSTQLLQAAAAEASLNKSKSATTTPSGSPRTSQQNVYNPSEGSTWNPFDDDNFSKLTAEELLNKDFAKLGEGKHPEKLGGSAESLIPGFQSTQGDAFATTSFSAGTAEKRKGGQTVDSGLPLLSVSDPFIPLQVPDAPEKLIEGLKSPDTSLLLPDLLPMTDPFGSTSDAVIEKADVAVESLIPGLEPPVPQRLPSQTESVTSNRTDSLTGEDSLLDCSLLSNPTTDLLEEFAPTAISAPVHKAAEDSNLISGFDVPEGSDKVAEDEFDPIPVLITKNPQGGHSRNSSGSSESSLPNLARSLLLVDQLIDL
T2 sequence (Q2M2I8 whole entry): as above
T1 sequence (P00519 whole entry): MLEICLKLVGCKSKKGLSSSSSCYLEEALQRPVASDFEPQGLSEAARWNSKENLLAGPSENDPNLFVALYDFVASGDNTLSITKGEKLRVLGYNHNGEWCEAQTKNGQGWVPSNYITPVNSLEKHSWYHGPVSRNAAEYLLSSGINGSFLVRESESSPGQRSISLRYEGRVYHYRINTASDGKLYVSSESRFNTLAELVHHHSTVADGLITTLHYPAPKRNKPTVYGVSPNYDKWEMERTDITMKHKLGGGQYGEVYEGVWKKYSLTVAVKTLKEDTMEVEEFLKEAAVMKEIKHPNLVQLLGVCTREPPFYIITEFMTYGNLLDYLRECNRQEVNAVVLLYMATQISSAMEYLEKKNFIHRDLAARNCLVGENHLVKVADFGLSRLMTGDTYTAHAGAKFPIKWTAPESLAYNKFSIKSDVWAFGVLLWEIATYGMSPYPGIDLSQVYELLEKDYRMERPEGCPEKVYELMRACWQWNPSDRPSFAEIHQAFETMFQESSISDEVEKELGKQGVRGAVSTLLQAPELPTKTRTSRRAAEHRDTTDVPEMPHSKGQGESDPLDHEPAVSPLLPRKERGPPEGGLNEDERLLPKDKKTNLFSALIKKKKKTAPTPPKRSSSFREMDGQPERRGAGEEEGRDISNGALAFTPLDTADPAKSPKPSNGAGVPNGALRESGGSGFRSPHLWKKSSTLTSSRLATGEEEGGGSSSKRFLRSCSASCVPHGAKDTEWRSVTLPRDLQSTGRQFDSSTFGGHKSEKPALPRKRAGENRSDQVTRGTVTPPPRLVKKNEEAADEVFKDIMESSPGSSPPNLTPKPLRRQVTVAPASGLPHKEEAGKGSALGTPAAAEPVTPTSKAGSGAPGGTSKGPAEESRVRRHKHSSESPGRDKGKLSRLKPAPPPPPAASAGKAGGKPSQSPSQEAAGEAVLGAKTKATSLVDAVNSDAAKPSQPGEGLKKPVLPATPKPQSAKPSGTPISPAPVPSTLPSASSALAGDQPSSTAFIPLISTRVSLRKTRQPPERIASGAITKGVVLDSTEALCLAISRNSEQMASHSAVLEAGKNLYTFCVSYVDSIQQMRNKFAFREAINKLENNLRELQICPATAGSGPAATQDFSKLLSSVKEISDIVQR
Protocol for full-length AAK1: Compounds were pipetted at various concentrations using an Echo acoustic dispenser (Labcyte), immediately followed by Tracer K10 (Promega, Tracer DB ID: T000008) for AAK1 and Aurora A and VHL Tracer (Promega, Tracer DB ID: T000019) for VHL, at an optimum KD concentration chosen from TracerDB ( tracerdb.org), respectively.
To measure the BRET signal, the NanoBRET® NanoGlo Substrate (Promega:
N1573) was added as per the manufacturer’s protocol, and filtered luminescence was measured on a PHERAstar plate reader (BMG Labtech) equipped with a luminescence filter pair (450 nm BP filter (donor) and 610 nm LP filter (acceptor)). For NanoBRET® measurement in permeabilized cells, 25 nL of digitonin (0.05 μg/μL) was pipetted into each well using an
After incubation, the BRET signals were measured by a PHERAstar plate reader (BMG Labtech) following the same procedure as intact NanoBRET® measurement. Competitive displacement data were then normalized to controls and were plotted using GraphPad Prism 9 software employing a normalized 3-parameter curve fit with the following equation:

With `NC(=O)c1ccccc1Nc1nc(Nc2ccc(N3CCNCC3)cc2)ncc1Cl` [compound 6], the values for the Kd on ABL1 and on AAK1 were 420 nM and 6.4 nM, respectively. The figures for the IC50 at full-length AAK1 (setting [1]), against full-length AAK1 (setting [2]) and with Jurkat cells were 0.004 ± 0.001 µM, 0.004 µM and 0.7 ± 0.2 µM, respectively.

`COc1cc(C)c(Sc2cnc(NC(=O)c3ccc(N4CCN(CCCCCCCNC(=O)COc5cccc6c5C(=O)N(C5CCC(=O)NC5=O)C6=O)CC4)cc3)s2)cc1C(=O)N1CCN(C(C)=O)CC1` (centres unmarked) [BSJ-05–037, reference compound]: the “ITK protein levels (Western blot)” value at ITK is on record as “only weak degradation of ITK”.

For `O=C(COc1cccc2c1C(=O)N(C1CCC(=O)NC1=O)C2=O)NCCOCCOCCNC(=O)C1(Cc2cccc(Nc3nccs3)n2)CCC(Oc2cccc(Cl)c2F)CC1` (centres unmarked) [JB300, reference compound], the “AURKA protein levels (Western blot)” value on AURKA is “strong degradation”.

Turning to `CC(C)(C)OC(=O)N1CCN(c2cc(Nc3cc(C4CC4)[nH]n3)nc(Nc3ccc(CC#N)cc3)n2)CC1` [compound 4], the results for the Kd at ABL1 and at AAK1 were 2970 nM and 29.4 nM, respectively. Also, the IC50 at full-length AAK1 (setting [1]) was 0.005 µM; at full-length AAK1 (setting [2]), 0.003 µM.
